Measurements as given in patent US11000033B2, “Ketone or oxime compound, and herbicide” (NISSAN CHEMICAL CORPORATION, priority 2014, dated 2021).

Legend:
Format in all cases: in vivo
[1] = system: Echinochloa oryzacola Vasing.; assay: Test Example 2: herbicidal activity, application during weed generation in submerged conditions (symbol A); conditions: Table 23; application herbicide amount 320 g/ha; grade 0-5 by criteria of Test Example 1
In short: (§1)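 Steps: fill pots with alluvial soil; add water to 4 cm depth; co-sow the three weeds; grow at 25° C. to 30° C. under glass; at 1–2 leaves, dose the floodwater with diluted emulsion; rate damage visually after 3 weeks.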

[2] = system: Scirpus juncoides; assay: Test Example 2: herbicidal activity, application during weed generation in submerged conditions (symbol B); conditions: Table 23; application herbicide amount 320 g/ha; grade 0-5 by criteria of Test Example 1
In short: as §1

[3] = system: Monochoria vaginalis; assay: Test Example 2: herbicidal activity, application during weed generation in submerged conditions (symbol C); conditions: Table 23; application herbicide amount 320 g/ha; grade 0-5 by criteria of Test Example 1
In short: as §1

[4] = system: Echinochloa crus-galli var. crus-galli; assay: Test Example 3: herbicidal effect by foliage application, Wagner pot (symbol H); conditions: application herbicide amount 320 g/ha, Table 24
In short: (§2)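 Post-emergence, paddy-type test: seedlings 14 d old in shallow-flooded (0.1–0.5 cm) alluvial soil, 25–30 °C greenhouse. Emulsion diluted to target rate, sprayed on leaves. Read-out: visual effect on each species at 3 weeks, per set criteria.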

[5] = system: Leptochloa chinensis; assay: Test Example 3: herbicidal effect by foliage application, Wagner pot (symbol D); conditions: application herbicide amount 320 g/ha, Table 24
In short: as §2

[6] = system: Digitaria ciliaris; assay: Test Example 4: herbicidal effect by soil treatment (symbol F); conditions: application herbicide amount 320 g/ha
In short: (§3)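 Seeds were sown in sterilized diluvial soil, covered with about 1.5 cm of soil, and the soil surface was sprayed with a water-diluted emulsion of the compound at a predetermined rate. Plants grew in a greenhouse at 25° C. to 30° C.; effects were scored visually 3 weeks after application.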

[7] = system: Setaria viridis; assay: Test Example 4: herbicidal effect by soil treatment (symbol G); conditions: application herbicide amount 320 g/ha
In short: as §3

[8] = system: Avena fatua; assay: Test Example 4: herbicidal effect by soil treatment (symbol I); conditions: application herbicide amount 320 g/ha
In short: as §3

[9] = system: Lolium multiflorum Lam.; assay: Test Example 4: herbicidal effect by soil treatment (symbol K); conditions: application herbicide amount 320 g/ha
In short: as §3

[10] = system: Veronica persica; assay: Test Example 4: herbicidal effect by soil treatment (symbol R); conditions: application herbicide amount 320 g/ha
Excerpt: Herbicidal Effect Test by Soil Treatment
Sterilized diluvial soil was placed in a plastic box having a length of 21 cm, a width of 13 cm, and a depth of 7 cm. Each of the seeds of Digitaria ciliaris, Setaria viridis, Echinochloa crus-galli var. crus-galli, Avena fatua, Alopecurus myosuroides, Lolium multiflorum Lam., Apera spica-venti, Abutilon theophrasti, Amaranthus retroflexus, Chenopodium album, Stellaria media, Galium spurium, Veronica persica, corn, soybean, rice, wheat, beet, and rapeseed was sowed in a spot-like manner and was covered with the soil of a thickness of about 1.5 cm. Subsequently, the emulsion agent of the compound present invention prepared in accordance with Formulation Example 2 was diluted with water so as to be a predetermined herbicide amount and the diluted emulsion agent was uniformly applied to the surface of the soil with a small-size spray. The plastic box was placed in a greenhouse of 25° C. to 30° C. to grow plant. 3 weeks later from the herbicide application, the effect to each plant was investigated in accordance with the criteria of Test Example 1.

[11] = system: rice; assay: Test Example 4: effect on crop by soil treatment (symbol b); conditions: application herbicide amount 320 g/ha
In short: (§4)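 Grown at 25° C. to 30° C. in a greenhouse, the crops came from seed sown spot-wise in sterilized diluvial soil under roughly 1.5 cm of covering soil.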

[12] = system: wheat; assay: Test Example 4: effect on crop by soil treatment (symbol e); conditions: application herbicide amount 320 g/ha
In short: as §4

[13] = system: Echinochloa crus-galli var. crus-galli; assay: Test Example 5: herbicidal effect by foliage application, plastic box (symbol H); conditions: 320 g/ha, 3 weeks after application
In short: (§5)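 Seeds were sown in sterilized diluvial soil, covered with about 1.5 cm of soil and grown 14 days in a greenhouse at 25° C. to 30° C. An emulsifiable formulation diluted in water to a set rate was sprayed over foliage, and injury was scored 3 weeks later.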

[14] = system: Alopecurus myosuroides; assay: Test Example 5: herbicidal effect by foliage application, plastic box (symbol J); conditions: 320 g/ha, 3 weeks after application
In short: as §5

[15] = system: Amaranthus retroflexus; assay: Test Example 5: herbicidal effect by foliage application, plastic box (symbol N); conditions: 320 g/ha, 3 weeks after application
In short: as §5

[16] = system: Chenopodium album; assay: Test Example 5: herbicidal effect by foliage application, plastic box (symbol O); conditions: 320 g/ha, 3 weeks after application
In short: as §5

[17] = system: Stellaria media; assay: Test Example 5: herbicidal effect by foliage application, plastic box (symbol P); conditions: 320 g/ha, 3 weeks after application
In short: as §5

[18] = system: rice plant; assay: Test Example 5: effect on crop by foliage application, plastic box (symbol b); conditions: 320 g/ha, 3 weeks after application
In short: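 Box culture: sterile diluvial soil, seeds spot-sown, ~1.5 cm cover, raised under glass at 25–30° C.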

[19] = system: Alopecurus myosuroides; assay: Test Example 4: herbicidal effect by soil treatment (symbol J); conditions: application herbicide amount 320 g/ha
In short: as §3

Cc1cc(Br)cc(C)c1C1=C(O)CC(CC(=NOCC(F)(F)F)C2CC2)C1=O (centres unmarked) [9-009]
Herbicidal effect grade, A: Echinochloa oryzacola Vasing. [1]: 2 (Herbicidal ratio of 20% or higher and lower than 40%)
Herbicidal effect grade, B: Scirpus juncoides [2]: 0 (Herbicidal ratio of 5% or lower (almost no effect))
Herbicidal effect grade, C: Monochoria vaginalis [3]: 0 (Herbicidal ratio of 5% or lower (almost no effect))
H (Echinochloa crus-galli var. crus-galli) herbicidal effect grade [4]: 5 (Herbicidal ratio of 90% or more (almost completely withered))
D (Leptochloa chinensis) herbicidal effect grade [5]: 5 (Herbicidal ratio of 90% or more (almost completely withered))
Herbicidal effect grade, F: Digitaria ciliaris [6]: 5 (Herbicidal ratio of 90% or more (almost completely withered))
Herbicidal effect grade, G: Setaria viridis [7]: 1 (Herbicidal ratio of 5% or higher and lower than 20%)
Herbicidal effect grade, I: Avena fatua [8]: 0 (Herbicidal ratio of 5% or lower (almost no effect))
Herbicidal effect grade, K: Lolium multiflorum Lam. [9]: 5 (Herbicidal ratio of 90% or more (almost completely withered))
Herbicidal effect grade, R: Veronica persica [10]: 1 (Herbicidal ratio of 5% or higher and lower than 20%)
Effect on crop grade, b: directly sowed rice plant [11]: 0 (Herbicidal ratio of 5% or lower (almost no effect))
Effect on crop grade, e: wheat [12]: 0 (Herbicidal ratio of 5% or lower (almost no effect))
H: Echinochloa crus-galli var. crus-galli, herbicidal effect grade [13]: 5 (Herbicidal ratio of 90% or more (almost completely withered))
J: Alopecurus myosuroides, herbicidal effect grade [14]: 4 (Herbicidal ratio of 70% or higher and lower than 90%)
N: Amaranthus retroflexus, herbicidal effect grade [15]: 0 (Herbicidal ratio of 5% or lower (almost no effect))
O: Chenopodium album, herbicidal effect grade [16]: 0 (Herbicidal ratio of 5% or lower (almost no effect))
P: Stellaria media, herbicidal effect grade [17]: 0 (Herbicidal ratio of 5% or lower (almost no effect))
b: directly sowed rice plant, effect on crop grade [18]: 5 (Herbicidal ratio of 90% or more (almost completely withered))

COCCON=C(C)CC1CC(O)=C(c2c(C)cc(Br)cc2C)C1=O (centres unmarked) [9-017]
Herbicidal effect grade, A: Echinochloa oryzacola Vasing. [1]: 1 (Herbicidal ratio of 5% or higher and lower than 20%)
Herbicidal effect grade, B: Scirpus juncoides [2]: 0 (Herbicidal ratio of 5% or lower (almost no effect))
Herbicidal effect grade, C: Monochoria vaginalis [3]: 0 (Herbicidal ratio of 5% or lower (almost no effect))
H (Echinochloa crus-galli var. crus-galli) herbicidal effect grade [4]: 5 (Herbicidal ratio of 90% or more (almost completely withered))
D (Leptochloa chinensis) herbicidal effect grade [5]: 5 (Herbicidal ratio of 90% or more (almost completely withered))
Herbicidal effect grade, F: Digitaria ciliaris [6]: 4 (Herbicidal ratio of 70% or higher and lower than 90%)
Herbicidal effect grade, G: Setaria viridis [7]: 0 (Herbicidal ratio of 5% or lower (almost no effect))
Herbicidal effect grade, I: Avena fatua [8]: 0 (Herbicidal ratio of 5% or lower (almost no effect))
Herbicidal effect grade, J: Alopecurus myosuroides [19]: 0 (Herbicidal ratio of 5% or lower (almost no effect))
Herbicidal effect grade, K: Lolium multiflorum Lam. [9]: 0 (Herbicidal ratio of 5% or lower (almost no effect))
Herbicidal effect grade, R: Veronica persica [10]: 0 (Herbicidal ratio of 5% or lower (almost no effect))
Effect on crop grade, b: directly sowed rice plant [11]: 1 (Herbicidal ratio of 5% or higher and lower than 20%)
Effect on crop grade, e: wheat [12]: 0 (Herbicidal ratio of 5% or lower (almost no effect))
H: Echinochloa crus-galli var. crus-galli, herbicidal effect grade [13]: 5 (Herbicidal ratio of 90% or more (almost completely withered))
J: Alopecurus myosuroides, herbicidal effect grade [14]: 3 (Herbicidal ratio of 40% or higher and lower than 70%)
N: Amaranthus retroflexus, herbicidal effect grade [15]: 0 (Herbicidal ratio of 5% or lower (almost no effect))
O: Chenopodium album, herbicidal effect grade [16]: 0 (Herbicidal ratio of 5% or lower (almost no effect))
P: Stellaria media, herbicidal effect grade [17]: 0 (Herbicidal ratio of 5% or lower (almost no effect))
b: directly sowed rice plant, effect on crop grade [18]: 5 (Herbicidal ratio of 90% or more (almost completely withered))

COCCON=C(CC1CC(O)=C(c2c(C)cc(-n3cc(Cl)cn3)cc2C)C1=O)C1CC1 (centres unmarked) [9-020]
Herbicidal effect grade, A: Echinochloa oryzacola Vasing. [1]: 4 (Herbicidal ratio of 70% or higher and lower than 90%)
Herbicidal effect grade, B: Scirpus juncoides [2]: 4 (Herbicidal ratio of 70% or higher and lower than 90%)
Herbicidal effect grade, C: Monochoria vaginalis [3]: 0 (Herbicidal ratio of 5% or lower (almost no effect))
H (Echinochloa crus-galli var. crus-galli) herbicidal effect grade [4]: 5 (Herbicidal ratio of 90% or more (almost completely withered))
D (Leptochloa chinensis) herbicidal effect grade [5]: 5 (Herbicidal ratio of 90% or more (almost completely withered))
Herbicidal effect grade, F: Digitaria ciliaris [6]: 4 (Herbicidal ratio of 70% or higher and lower than 90%)
Herbicidal effect grade, G: Setaria viridis [7]: 5 (Herbicidal ratio of 90% or more (almost completely withered))
Herbicidal effect grade, I: Avena fatua [8]: 0 (Herbicidal ratio of 5% or lower (almost no effect))
Herbicidal effect grade, J: Alopecurus myosuroides [19]: 3 (Herbicidal ratio of 40% or higher and lower than 70%)
Herbicidal effect grade, K: Lolium multiflorum Lam. [9]: 5 (Herbicidal ratio of 90% or more (almost completely withered))
Herbicidal effect grade, R: Veronica persica [10]: 0 (Herbicidal ratio of 5% or lower (almost no effect))
Effect on crop grade, b: directly sowed rice plant [11]: 3 (Herbicidal ratio of 40% or higher and lower than 70%)
Effect on crop grade, e: wheat [12]: 0 (Herbicidal ratio of 5% or lower (almost no effect))
H: Echinochloa crus-galli var. crus-galli, herbicidal effect grade [13]: 5 (Herbicidal ratio of 90% or more (almost completely withered))
J: Alopecurus myosuroides, herbicidal effect grade [14]: 5 (Herbicidal ratio of 90% or more (almost completely withered))
N: Amaranthus retroflexus, herbicidal effect grade [15]: 5 (Herbicidal ratio of 90% or more (almost completely withered))
O: Chenopodium album, herbicidal effect grade [16]: 3 (Herbicidal ratio of 40% or higher and lower than 70%)
P: Stellaria media, herbicidal effect grade [17]: 3 (Herbicidal ratio of 40% or higher and lower than 70%)
b: directly sowed rice plant, effect on crop grade [18]: 5 (Herbicidal ratio of 90% or more (almost completely withered))
